Seven substances from patent US20210221848A1, “POLYMYXIN DERIVATIVES AND THEIR USE IN COMBINATION THERAPY TOGETHER WITH DIFFERENT ANTIBIOTICS” (priority 2014, published 2021) can be followed below.

Setting [1] is: absence of a second agent, Table 6B.

Like-named read-outs stand apart in the source and are kept apart here.

Consider “(cis-6-octylpiperidine)- 3-carbonyl polymyxin B nonapeptide [Example D16]”, for which, in the experiment on P. aeruginosa (setting [1]), the “MIC, P. aeruginosa ATCC 27853” value was found to be 8 micrograms/mL and the “MIC, P. aeruginosa CCUG 59347” value is 1 micrograms/mL. For the same substance, in the experiment on A. baumannii (setting [1]), the “MIC, A. baumannii ATCC BAA-747” value is listed as more than 8 micrograms/mL and the “MIC, A. baumannii NCTC 13424” value is reported as more than 8 micrograms/mL. In the experiment on K. pneumoniae (setting [1]), the “MIC, K. pneumoniae ATCC 4352” value is more than 8 micrograms/mL and the “MIC, K. pneumoniae ATCC BAA-2146” value is given as more than 8 micrograms/mL. Further, in the experiment with E. coli (setting [1]), the “MIC, E. coli ATCC 25922” value is listed as more than 8 micrograms/mL and the “MIC, E. coli NCTC 13441” value was more than 8 micrograms/mL.

Regarding “5-((2- methylpropyl)sulfon- amido)piperidine- 3-carbonyl- polymyxin B nonapeptide [Example D73]”, in the experiment on P. aeruginosa (sole activity, Table 6C), the “MIC, P. aeruginosa ATCC 27853” value is reported as 1 micrograms/mL and the “MIC, P. aeruginosa CCUG 59347” value was 2 micrograms/mL. Besides, in the experiment with A. baumannii (sole activity, Table 6C), the “MIC, A. baumannii ATCC BAA-747” value came out at 4 micrograms/mL and the “MIC, A. baumannii NCTC 13424” value is 2 micrograms/mL. In the experiment with K. pneumoniae (sole activity, Table 6C), the “MIC, K. pneumoniae ATCC 4352” value came to 0.5 micrograms/mL and the “MIC, K. pneumoniae ATCC BAA-2146” value is listed as 0.5 micrograms/mL. In the experiment with E. coli (sole activity, Table 6C), the “MIC, E. coli ATCC 25922” value was 0.25 micrograms/mL and the “MIC, E. coli NCTC 13441” value is on record as 0.5 micrograms/mL.

Take “2-(2-aminoethyl)-4- methyl pentanoyl polymyxin B nonapeptide [Example D45]”: in the experiment on P. aeruginosa (setting [1]), the “MIC, P. aeruginosa ATCC 27853” value is 1 micrograms/mL and the “MIC, P. aeruginosa CCUG 59347” value is listed as 4 micrograms/mL. In addition, in the experiment on A. baumannii (setting [1]), the “MIC, A. baumannii ATCC BAA-747” value came out at 8 micrograms/mL and the “MIC, A. baumannii NCTC 13424” value was determined as 4 micrograms/mL. In addition, in the experiment on K. pneumoniae (setting [1]), the “MIC, K. pneumoniae ATCC 4352” value turned out to be 0.5 micrograms/mL and the “MIC, K. pneumoniae ATCC BAA-2146” value is given as 2 micrograms/mL. In the experiment on E. coli (setting [1]), the “MIC, E. coli ATCC 25922” value is reported as 0.5 micrograms/mL and the “MIC, E. coli NCTC 13441” value turned out to be 2 micrograms/mL.

Turning to “4-octylpiperidine-3- carbonyl polymyxin B nonapeptide [Example D34]”, in the experiment on P. aeruginosa (setting [1]), the “MIC, P. aeruginosa ATCC 27853” value is 1 micrograms/mL and the “MIC, P. aeruginosa CCUG 59347” value is recorded as 2 micrograms/mL. Also, in the experiment with A. baumannii (setting [1]), the “MIC, A. baumannii ATCC BAA-747” value was determined as 2 micrograms/mL and the “MIC, A. baumannii NCTC 13424” value is listed as 2 micrograms/mL. Moreover, in the experiment with K. pneumoniae (setting [1]), the “MIC, K. pneumoniae ATCC 4352” value is reported as 2 micrograms/mL and the “MIC, K. pneumoniae ATCC BAA-2146” value came out at 2 micrograms/mL. In the experiment on E. coli (setting [1]), the “MIC, E. coli ATCC 25922” value is recorded as 1 micrograms/mL and the “MIC, E. coli NCTC 13441” value was 1 micrograms/mL.

Consider “(trans-6- octylpiperidine)-3- carbonyl polymyxin B nonapeptide [Example D19]”, for which, in the experiment with P. aeruginosa (setting [1]), the “MIC, P. aeruginosa ATCC 27853” value worked out at 0.5 micrograms/mL and the “MIC, P. aeruginosa CCUG 59347” value was found to be 1 micrograms/mL. The “MIC, A. baumannii ATCC BAA-747” value with A. baumannii (setting [1]) worked out at 2 micrograms/mL. In the experiment on K. pneumoniae (setting [1]), the “MIC, K. pneumoniae ATCC 4352” value worked out at 2 micrograms/mL and the “MIC, K. pneumoniae ATCC BAA-2146” value amounted to 4 micrograms/mL. Also, in the experiment on E. coli (setting [1]), the “MIC, E. coli ATCC 25922” value was 2 micrograms/mL and the “MIC, E. coli NCTC 13441” value is recorded as 2 micrograms/mL.

Regarding “4-Amino-2-benzyl butanoylpolymyxin B nonapeptide [Example D3]”, in the experiment on P. aeruginosa (setting [1]), the “MIC, P. aeruginosa ATCC 27853” value was found to be 0.5 micrograms/mL and the “MIC, P. aeruginosa CCUG 59347” value turned out to be 1 micrograms/mL. In the experiment with A. baumannii (setting [1]), the “MIC, A. baumannii ATCC BAA-747” value is more than 8 micrograms/mL and the “MIC, A. baumannii NCTC 13424” value is more than 8 micrograms/mL. Further, in the experiment on K. pneumoniae (setting [1]), the “MIC, K. pneumoniae ATCC 4352” value stood at 1 micrograms/mL and the “MIC, K. pneumoniae ATCC BAA-2146” value is on record as 2 micrograms/mL. For the same substance, in the experiment with E. coli (setting [1]), the “MIC, E. coli ATCC 25922” value is 0.25 micrograms/mL and the “MIC, E. coli NCTC 13441” value is 0.5 micrograms/mL.

Take “2-(2-aminoethyl)-4- methyl pentanoyl polymyxin B nonapeptide [Example D46]”: in the experiment with P. aeruginosa (setting [1]), the “MIC, P. aeruginosa ATCC 27853” value is 0.5 micrograms/mL and the “MIC, P. aeruginosa CCUG 59347” value is listed as 1 micrograms/mL. Besides, in the experiment on A. baumannii (setting [1]), the “MIC, A. baumannii ATCC BAA-747” value came out at 1 micrograms/mL and the “MIC, A. baumannii NCTC 13424” value came out at 2 micrograms/mL. In addition, in the experiment on K. pneumoniae (setting [1]), the “MIC, K. pneumoniae ATCC 4352” value is 0.5 micrograms/mL and the “MIC, K. pneumoniae ATCC BAA-2146” value is recorded as 1 micrograms/mL. Moreover, in the experiment on E. coli (setting [1]), the “MIC, E. coli ATCC 25922” value was 1 micrograms/mL and the “MIC, E. coli NCTC 13441” value turned out to be 1 micrograms/mL.
